Assay results reported in article PMC13696528, “Combined Immune‐Peptide Nanofiber with HSP70/AKT/mTOR Axis Blockade Enhances Photothermal Immunotherapy, Inhibiting Tumor Growth and Recurrence” (Advanced Science, 2026).

Legend:
CT26 cells = assay: Colony formation assay after PTIT; assay type: cell-based, mouse; settings: PSP@IR-CF3 + NIR plus VER-155008 (0.2 μM) or Rapa (10 nM), 14 days, n = 3
Procedure: CT26 cells were harvested and prepared as a single-cell suspension. […] Following the indicated treatments, cells were cultured under standard conditions (37 °C, 5% CO₂) for 14 days until visible colonies had formed.
The culture medium was then removed, and the cells were gently washed with PBS. Colonies were fixed with 4% paraformaldehyde for 10–15 min and stained with crystal violet for 10–20 min. Excess dye was removed by washing with distilled water, and the plates were air-dried. Colonies were quantified using ImageJ software (RRID:SCR_003070).

[1] = system: CT26-Luc tumor-bearing mice; assay: In vivo recurrence study with HSP70 inhibition; parameters: species or system mouse; settings: combined with PTIT (PSP@IR-CF3 + NIR), VER-155008 20 mg kg⁻¹ d⁻¹ i.p. 7 days, n = 10, 28 days
Procedure: CT26-Luc cells were cultured under standard conditions and harvested during the logarithmic growth phase. BALB/c mice were subcutaneously inoculated with CT26-Luc cells to establish tumor-bearing models.
In the combination group, the HSP70 inhibitor VER-155008 was administered via intraperitoneal injection at a dose of 20 mg kg⁻¹ d⁻¹ for 7 consecutive days beginning immediately after NIR irradiation. Tumor growth was monitored regularly, and mice were followed for 28 days after treatment to evaluate tumor recurrence. Tumor recurrence was defined as the reappearance of measurable tumor growth at the original treatment site following initial tumor regression.

Structure (SMILES)	colony formation and clonogenic recovery after PTIT (CT26 cells)	recurrent tumors [1]
N#Cc1ccc(COC[C@H]2O[C@@H](n3c(NCc4ccc(Cl)c(Cl)c4)nc4c(N)ncnc43)[C@H](O)[C@@H]2O)cc1 [VER-155008]	reduced colony formation and impaired clonogenic recovery	no recurrent tumors
CO[C@H]1C[C@@H]2CC[C@@H](C)[C@@](O)(O2)C(=O)C(=O)N2CCCC[C@H]2C(=O)O[C@H]([C@H](C)C[C@@H]2CC[C@@H](O)[C@H](OC)C2)CC(=O)[C@H](C)/C=C(\C)[C@@H](O)[C@@H](OC)C(=O)[C@H](C)C[C@H](C)/C=C/C=C/C=C/1C [Rapamycin, rapamycin]	reduced colony formation and impaired clonogenic recovery	–
